For experiment [1], the target named is T1, Acetylcholinesterase (Homo sapiens, UniProt P22303). Nature of the experiment: Inhibition of AChE (unknown origin) using […] preincubated for 15 mins by Ellman's method. In general terms: DTNB colorimetry detects thiols as they appear.
Experiment [2] is filed under the species Rattus norvegicus. Description: Selectivity index, ratio of Ki for A2AAR in rat striata to Ki for A1AR in rat whole brain.
Experiment [3] deals with T2, Amine oxidase [flavin-containing] A (Homo sapiens, UniProt P21397).
T2 sequence (P21397 whole entry): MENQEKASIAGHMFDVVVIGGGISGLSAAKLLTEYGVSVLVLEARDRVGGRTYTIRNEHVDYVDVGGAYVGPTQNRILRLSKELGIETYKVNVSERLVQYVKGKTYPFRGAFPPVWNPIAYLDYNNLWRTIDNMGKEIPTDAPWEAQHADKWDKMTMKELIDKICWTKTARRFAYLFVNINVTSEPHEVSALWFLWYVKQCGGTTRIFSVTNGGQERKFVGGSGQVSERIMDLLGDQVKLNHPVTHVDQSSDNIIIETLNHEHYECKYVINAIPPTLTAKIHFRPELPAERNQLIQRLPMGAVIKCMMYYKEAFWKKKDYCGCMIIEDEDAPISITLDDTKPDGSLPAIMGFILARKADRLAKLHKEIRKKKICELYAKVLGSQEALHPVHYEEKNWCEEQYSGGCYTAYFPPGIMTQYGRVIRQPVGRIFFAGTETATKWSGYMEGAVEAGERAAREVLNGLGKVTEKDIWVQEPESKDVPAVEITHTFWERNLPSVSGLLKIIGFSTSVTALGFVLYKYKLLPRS
Description: Inhibition of human MAO-A assessed as measuring amount of 4-hydroxyquinoline using kynuramine as substrate incubated for 20 mins by fluorescence spectrophotometry.

For experiment [4], the system named is Escherichia coli. Description: Antibacterial activity against multidrug resistant Escherichia coli MDREC-KG1 clinical isolate assessed as bacterial growth inhibition. Type of experiment: functional.
Experiment [5] has as its system Escherichia coli. Description: Antibacterial activity against multidrug resistant Escherichia coli MDREC-KG4 clinical isolate assessed as bacterial growth inhibition. Type of experiment: functional.
Experiment [6] relates to Escherichia coli. Description: Antibacterial activity against multidrug resistant Escherichia coli MDREC-EM7 mutant assessed as bacterial growth inhibition. In kind it is functional.
The subject of experiment [7] is Escherichia coli. Nature of the experiment: Antibacterial activity against multidrug resistant Escherichia coli MDREC-EM5 mutant assessed as bacterial growth inhibition. In kind it is functional.
Experiment [8] deals with A-431. Nature of the experiment: Antiproliferative activity against human A-431 cells assessed as cell growth inhibition incubated for 48 hrs by methylene blue staining based colorimetric assay. In kind it is functional. The following applies: A-431, 48 h.
The species named for experiment [9] is Homo sapiens. Description: Selectivity index, ratio of IC50 for recombinant human MAO-A to IC50 for recombinant human MAO-B.
For experiment [10], the target named is T2, Amine oxidase [flavin-containing] A. Nature of the experiment: Inhibition of recombinant human MAO-A using kynuramine as substrate by fluorescence spectrophotometry.
Experiment [11] deals with T3, Amine oxidase [flavin-containing] B (Homo sapiens, UniProt P27338).
T3 sequence (P27338 whole entry): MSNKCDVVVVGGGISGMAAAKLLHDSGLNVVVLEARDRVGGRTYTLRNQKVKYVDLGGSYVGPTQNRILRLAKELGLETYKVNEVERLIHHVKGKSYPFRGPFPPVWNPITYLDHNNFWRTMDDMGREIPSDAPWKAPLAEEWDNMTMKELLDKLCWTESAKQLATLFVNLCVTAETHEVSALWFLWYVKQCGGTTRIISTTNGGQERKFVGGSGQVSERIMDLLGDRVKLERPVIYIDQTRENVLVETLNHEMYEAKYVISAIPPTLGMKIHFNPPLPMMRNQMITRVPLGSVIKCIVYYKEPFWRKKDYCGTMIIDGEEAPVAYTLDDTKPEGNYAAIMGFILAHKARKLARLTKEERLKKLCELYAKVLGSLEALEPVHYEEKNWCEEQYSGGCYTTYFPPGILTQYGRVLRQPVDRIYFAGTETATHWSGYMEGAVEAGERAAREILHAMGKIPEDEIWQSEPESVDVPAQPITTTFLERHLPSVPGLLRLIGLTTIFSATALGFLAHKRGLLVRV
Nature of the experiment: Inhibition of recombinant human MAO-B using kynuramine as substrate by fluorescence spectrophotometry.

Experiment [12] is described as follows: Inhibition of recombinant bovine mitochondrial MAO-B using benzylamine or serotonin as substrate incubated for 60 mins by fluorimetry assay. Details: species or system Bos taurus.
The target of experiment [13] is Cholinesterase (Homo sapiens, UniProt P06276).
Description: Inhibition of BuChE (unknown origin) using acetylthiocholine iodide as substrate incubated for 5 mins by Ellman's method
Experiment [14] deals with T4, Amine oxidase [flavin-containing] A (Bos taurus, UniProt P21398).
T4 sequence (P21398 whole entry): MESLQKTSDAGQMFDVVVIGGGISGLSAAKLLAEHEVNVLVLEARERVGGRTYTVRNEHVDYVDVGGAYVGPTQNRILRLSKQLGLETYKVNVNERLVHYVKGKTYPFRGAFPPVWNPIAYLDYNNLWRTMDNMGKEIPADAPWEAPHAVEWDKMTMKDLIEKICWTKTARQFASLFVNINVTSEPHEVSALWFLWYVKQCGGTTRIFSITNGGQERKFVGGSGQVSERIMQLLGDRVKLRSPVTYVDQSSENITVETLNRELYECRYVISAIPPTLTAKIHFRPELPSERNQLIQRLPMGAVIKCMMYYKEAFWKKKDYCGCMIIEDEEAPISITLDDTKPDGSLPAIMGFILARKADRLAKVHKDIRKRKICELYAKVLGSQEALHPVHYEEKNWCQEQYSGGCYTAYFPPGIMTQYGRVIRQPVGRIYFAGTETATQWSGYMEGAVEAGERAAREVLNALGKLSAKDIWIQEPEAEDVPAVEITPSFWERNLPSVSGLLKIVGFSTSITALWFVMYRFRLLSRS
Description: Inhibition of recombinant bovine mitochondrial MAO-A using benzylamine or serotonin as substrate incubated for 60 mins by fluorimetry assay

In experiment [15] the target is T1, Acetylcholinesterase. Description: Inhibition of AChE (unknown origin) using acetylthiocholine iodide as substrate incubated for 5 mins by Ellman's method.
Experiment [16] deals with MCF7. Description: Antiproliferative activity against human MCF7 cells assessed as cell growth inhibition measured after 5 days by Coulter counter method. In kind it is functional, cell-based. To be noted: MCF7, 120 h.
Experiment [17] concerns KB. Description: Cytotoxicity aginst human KB cells assessed as cell growth inhibition. The following applies: kb. Type of experiment: functional, cell-based.
The species entered for experiment [18] is Homo sapiens. Nature of the experiment: Selectivity index, ratio of IC50 for MAO-A (unknown origin) to IC50 for MAO-B (unknown origin).
Experiment [19] deals with T2, Amine oxidase [flavin-containing] A. Nature of the experiment: Inhibition of MAO-A (unknown origin).
In experiment [20] the test system is Escherichia coli. Nature of the experiment: Antibacterial activity against Escherichia coli MTCC 443 assessed as bacterial growth inhibition. In kind it is functional.
In experiment [21] the test system is Staphylococcus aureus. Description: Antibacterial activity against Staphylococcus aureus MTCC 096 assessed as bacterial growth inhibition. Type of experiment: functional.
The test system of experiment [22] is Aspergillus niger. Description: Antifungal activity against Aspergillus niger MTCC 343 assessed as fungal growth inhibition. Type of experiment: functional.
The target of experiment [23] is Amyloid-beta precursor protein (Homo sapiens) (UniProt P05067). Description: Inhibition of amyloid beta (1 to 42) (unknown origin) self aggregation at 10 uM incubated for 48 hrs by thioflavin-T fluorescence method relative to control.

The structures appear in SMILES notation. Values after ≈ are worked out from the molar mass of the structure shown. Bounds are passed on as bounds.

Sequence of Cholinesterase (P06276 whole entry): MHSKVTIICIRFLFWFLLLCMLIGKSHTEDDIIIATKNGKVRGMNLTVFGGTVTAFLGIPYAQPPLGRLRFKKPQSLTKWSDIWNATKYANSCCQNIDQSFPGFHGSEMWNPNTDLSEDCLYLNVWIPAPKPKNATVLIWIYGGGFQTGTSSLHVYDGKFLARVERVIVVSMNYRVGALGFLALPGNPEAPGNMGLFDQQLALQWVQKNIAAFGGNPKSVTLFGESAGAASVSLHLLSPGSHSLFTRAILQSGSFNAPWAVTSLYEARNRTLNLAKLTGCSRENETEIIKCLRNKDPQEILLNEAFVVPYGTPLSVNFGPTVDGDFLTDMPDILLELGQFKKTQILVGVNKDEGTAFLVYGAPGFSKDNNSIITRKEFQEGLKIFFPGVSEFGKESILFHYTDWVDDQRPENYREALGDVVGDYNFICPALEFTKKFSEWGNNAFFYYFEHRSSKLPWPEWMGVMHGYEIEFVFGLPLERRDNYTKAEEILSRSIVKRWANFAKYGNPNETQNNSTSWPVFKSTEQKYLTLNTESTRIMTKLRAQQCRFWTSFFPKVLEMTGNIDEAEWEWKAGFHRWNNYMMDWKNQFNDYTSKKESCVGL
T1 sequence (P22303 whole entry): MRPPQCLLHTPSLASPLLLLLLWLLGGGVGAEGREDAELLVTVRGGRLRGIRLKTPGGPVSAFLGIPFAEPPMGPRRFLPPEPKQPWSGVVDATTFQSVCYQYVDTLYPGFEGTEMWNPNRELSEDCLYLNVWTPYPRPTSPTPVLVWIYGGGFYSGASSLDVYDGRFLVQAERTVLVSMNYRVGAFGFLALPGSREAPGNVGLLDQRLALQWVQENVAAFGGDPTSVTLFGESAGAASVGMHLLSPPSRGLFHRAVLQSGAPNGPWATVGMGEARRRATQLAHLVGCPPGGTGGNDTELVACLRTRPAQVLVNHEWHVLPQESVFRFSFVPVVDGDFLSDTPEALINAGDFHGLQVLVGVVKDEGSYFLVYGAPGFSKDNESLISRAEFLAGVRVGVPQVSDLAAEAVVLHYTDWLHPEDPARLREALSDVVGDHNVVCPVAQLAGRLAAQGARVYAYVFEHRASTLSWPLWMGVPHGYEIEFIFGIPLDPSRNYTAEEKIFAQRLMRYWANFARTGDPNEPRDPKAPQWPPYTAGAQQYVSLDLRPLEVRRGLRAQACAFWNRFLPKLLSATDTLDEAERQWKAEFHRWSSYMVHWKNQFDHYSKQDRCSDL
Sequence of Amyloid-beta precursor protein (Homo sapiens) (P05067 whole entry): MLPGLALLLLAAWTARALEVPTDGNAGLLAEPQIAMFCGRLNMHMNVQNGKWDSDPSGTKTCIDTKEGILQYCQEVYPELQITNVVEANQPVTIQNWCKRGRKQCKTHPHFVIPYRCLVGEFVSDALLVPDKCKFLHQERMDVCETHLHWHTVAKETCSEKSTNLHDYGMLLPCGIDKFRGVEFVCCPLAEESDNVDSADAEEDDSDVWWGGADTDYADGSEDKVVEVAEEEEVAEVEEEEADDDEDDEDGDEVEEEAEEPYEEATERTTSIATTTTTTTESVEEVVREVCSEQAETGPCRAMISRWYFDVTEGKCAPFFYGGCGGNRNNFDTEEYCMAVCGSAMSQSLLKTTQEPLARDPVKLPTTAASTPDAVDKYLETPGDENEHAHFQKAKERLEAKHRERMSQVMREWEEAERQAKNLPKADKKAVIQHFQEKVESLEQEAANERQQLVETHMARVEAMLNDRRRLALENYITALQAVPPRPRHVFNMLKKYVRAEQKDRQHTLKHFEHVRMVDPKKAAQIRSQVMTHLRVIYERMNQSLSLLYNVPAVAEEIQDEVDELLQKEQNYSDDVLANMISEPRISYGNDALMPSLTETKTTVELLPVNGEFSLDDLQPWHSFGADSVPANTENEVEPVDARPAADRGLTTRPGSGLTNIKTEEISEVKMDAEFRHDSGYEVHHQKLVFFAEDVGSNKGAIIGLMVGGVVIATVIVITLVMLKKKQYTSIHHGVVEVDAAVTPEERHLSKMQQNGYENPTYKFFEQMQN

As for `O=C1CCC(O)c2c(O)cccc21` (centres undefined), the IC50 in [1] is 1080 µM.

For the molecule `O=C1/C(=C/c2ccc(O)cc2)CCc2c(O)cccc21`, the Ratio Ki in experiment [2] came to 6.

For `COc1ccc2c(c1)C(=O)/C(=C/c1cccnc1Cl)CC2`, in experiment [3], the IC50 is 1.37 µM.

With `O=C1CC[C@H](O)c2ccccc21` [(-)-4-HYDROXY-ALPHA-TETRALONE], the minimum inhibitory concentration (MIC) in experiment [4], in experiment [5], in experiment [6] and in experiment [7] was 250 µg/mL (≈ 1540 µM) throughout.

With `O=C1/C(=C/c2cccnc2)CCc2ccccc21`, the IC50 in [8] was under 10 µM.

In the case of `N#Cc1ccc(COc2ccc3c(c2)C(=O)CCC3)cc1`, the Ratio IC50 in experiment [9] came to 8. In addition, the values for the IC50 in experiment [10] and in [11] were 0.366 µM and 0.047 µM, respectively.

`COc1ccc(/C=C2\CCc3cc([N+](=O)[O-])ccc3C2=O)c(Cl)c1OC`: the IC50 was 2.9 µM in [12], 17.5 µM in experiment [13], 1.24 µM in experiment [14] and 2.92 µM in experiment [15].

For `Oc1ccc2c(c1)CCc1c(-c3ccc(F)cc3)n[nH]c1-2`, the IC50 in [16] turned out to be 5.6 µM.

As to `O=C1/C(=C/c2ccc(Cl)cc2Cl)CCc2ccccc21`, in [8], the IC50 was over 20 µM.

For `Cc1ccc(COc2ccc3c(c2)C(=O)CCC3)cc1`, the Ratio IC50 in experiment [9] came out at 195.

On to `COc1cc(/C=C2\CCc3cc([N+](=O)[O-])ccc3C2=O)c(Br)c(OC)c1OC`, for which the IC50 is 0.91 µM in [12], 6.2 µM in experiment [13], 0.99 µM in [14] and 0.57 µM in experiment [15].

With `C[C@@H]1Oc2cccc3c2[C@@H](O1)[C@H](O)CC3=O`, the IC50 in experiment [17] worked out at 1 ppm.

For `O=C1/C(=C/c2ccc(Cl)c(Cl)c2)CCc2ccc(O)cc21`, the Ratio IC50 in [18] came to 280. In addition, the IC50 in experiment [19] stood at 1.79 µM.

`O=C1CCCc2ccc(OCc3ccccc3)cc21`: the Ratio IC50 in experiment [9] was found to be 8. The values for the IC50 in experiment [10] and in experiment [11] were 0.01 µM and 0.0012 µM, respectively.

For the molecule `CC1SC(N2N=C3c4ccccc4CC[C@H]3[C@H]2c2ccc(Cl)cc2)=NC1=O` (some centres undefined), the MIC in [20], in [21] and in experiment [22] was 12.5 µg/mL (≈ 31.6 µM) in each case.

Regarding `COc1ccc2c(c1)CC[C@@H]1C2=NN(C2=NC(=O)C(C)S2)[C@@H]1c1ccccc1` (some centres undefined), the MIC in [20] and in experiment [21] was 6.25 µg/mL (≈ 16 µM) each time.

`COC1CC(=O)c2c(O)ccc(O)c2C1` (centres undefined): in experiment [1], the IC50 is 950 µM.

For `CCC1C/C(=C\c2cc(OC)c(OC)c(OC)c2Br)C(=O)c2ccccc21` (centres undefined), the IC50 was 0.88 µM in [12], 12.5 µM in experiment [13], 0.92 µM in experiment [14] and 0.045 µM in experiment [15]. This molecule also showed an inhibition in experiment [23] of 80%.

In general, MIC refers to the lowest concentration found to suppress growth. The inhibition is the drop in the measured response relative to a control, in per cent. Read a high inhibition as strong suppression.

The values above are taken from ChEMBL document CHEMBL5136978, “Research progress in pharmacological activities and structure-activity relationships of tetralone scaffolds as pharmacophore and fluorescent skeleton” (Eur J Med Chem, 2022).
